Measured values published in patent US20130071853A1, “METHODS FOR IDENTIFYING COMPOSITIONS THAT ALTER WILDTYPE EXPRESSION OF GENES AND PROTEINS IN A PLANT CELL” (Dow Agrosciences LLC, priority 2010, published 2013).

Key:
[1] = system: Arabidopsis genes on the microarray; assay: Agilent single-color global gene expression profiling of Arabidopsis leaf tissue 2 h after spray treatment; type: in vivo, Arabidopsis thaliana (variety Columbia); details: for Regulation^a: direction per probe/gene
Protocol: Thirteen Arabidopsis seeds (variety Columbia) were planted in 6 inch pots filled with sandy clay medium. After emergence, pots were thinned to 10 plants per pot. Plants were grown in a greenhouse with a 12 hr light cycle and watered every 24 hours or as needed to maintain stress free conditions. When the Arabidopsis plants reached the vegetative (>BBCH 11<BBCH 30) stage (approx. 2-3 wks from planting), the pots were arranged into a randomized complete block design with 10 plants with 3 replications per treatment. The plants were treated using a standard CO2 sprayer with 20 gal/A carrier volume.
Control: Oil/Adjuvant check (0.035% v/v SILWET adjuvant L-77)
Compound 1: A17492F (MCP) 25 g ai /ha+0.035% SILWET adjuvant
Compound 2: COMPASS fungicide 1x+0.035% SILWET adjuvant
Combination: 1 MCP 25 g/ha+COMPASS fungicide 1x
(§1) Two hours after the spray application, leaves that had received the spray were sampled. For each treatment, two leaves were taken from each of the 10 plants and combined into a 50 ml polypropylene tube. Samples were immediately frozen on dry ice and sent on dry ice overnight to the laboratory for processing.
(§2) A single-color Agilent global gene expression profiling design was used to define differentially expressed genes for treated in reference to untreated Arabidopsis leaf tissues. Three technical array replicates (Agilent Technologies Inc., Santa Clara, Calif.) were hybridized to compare different transcript abundance between leaf tissues treated with Strobilurin and/or 1-MCP in reference to untreated leaf tissues. Arabidopsis slides, Product #G2519F, Design ID 021169 were obtained from Agilent Technologies.
(§3) Samples of 30-50 mg of frozen leaf tissues were resuspended in 450 μL of extraction buffer RLT from the RNeasy Kit for RNA extraction (Qiagen, Valencia, Calif.). Tissues were then ground to a fine powder by adding one 3 mm grinding bead to each frozen sample and grinding for 3 minutes using a GenoGrinder at a rate of 300, 1×. Total RNA was purified following the manufacturer's instructions. Purified total RNA was then quantified and quality controlled using a NanoDrop spectrophotometer and visualized by standard 1% Agarose gel electrophoresis.
(§4) For labeling, a total of 1.0 μg of purified RNA from treated and untreated tissues was reverse transcribed, amplified and labeled with Cy3-CTP following the Agilent (Santa Clara, Calif.) one-color microarray-based gene expression QuickAmp labeling protocol. Since Agilent Arabidopsis microarrays for gene expression (Product #G2519F, Design ID 021169) contain internal spike-in controls a one-color RNA spike-in kit (Agilent, Santa Clara, Calif.) was also labeled according to manufacturer's instructions. Samples were reverse transcribed using MMLV Reverse Transcriptase and amplified using a T7 RNA Polymerase. After amplification cRNA was purified using Qiagen's RNeasy mini spin columns and quantified using a NanoDrop spectrophotometer. Specific activity for Cy3 was determined by the following formula: (Concentration of Cy3)/(Concentration of cRNA)*1000=pmol of Cy3 per μg of cRNA. Samples for hybridization were normalized to 825 ng with a specific activity of >8.0 pmol of Cy3 per μg of cRNA.
Oligo gene expression arrays were hybridized using the Agilent Technologies (Santa Clara, Calif.) Gene Expression Hybridization kit, Wash Buffer kit, Stabilization and Drying Solution following the manufacturer's instructions. Hybridizations were carried out on a fully automated TECAN HS4800 PRO (TECAN U.S., Research Triangle Park, N.C.) hybridization instrument. The hybridization mixture was injected at 65° C. and incubated with agitation for 17 hrs after following a slide pre-hybridization step at 65° C. for 30 seconds. Slides were then washed at 37° C. for 1 minute using the Agilent GE Wash #1 followed by a second wash at 30° C. with Agilent GE Wash #2 for 1 minute and a final drying step using Nitrogen gas for 2 minutes and 30 seconds at 30° C. […]

[2] = system: maize transcripts (corn genes on the microarray); assay: Agilent single-color global gene expression profiling of corn leaf tissue 2 h after spray treatment; type: in vivo, Zea maize (corn); details: for Regulation: Table 1: corn genes, 1-MCP alone, direction of change per probe/gene
Protocol: Hybrid corn seed (one plant per pot) was planted in 1 quart pots filled with FAFARD 3B™ potting mix (Conrad Fafard, Inc., Agawam, Mass.). Corn was grown in a greenhouse with a 12 hr light cycle and watered every 24 hours or as needed to maintain stress free conditions. When the corn plants reached the V10 growth stage, the pots were arranged into a randomized complete block design with 4 plants with 3 replications per treatment. Corn plants were treated using a standard CO2 sprayer with 20 gal/acre carrier volume.
Treatments were: • Control: Oil/Adjuvant check using 0.035% v/v the organosilicone surfactant SILWET L-77 (Helena Chemical Co., Collierville, Tenn.) • Compound 1: A17492F (MCP) 25 g active ingredient/hectare (ai/ha)+0.035% SILWET surfactant • Compound 2: COMPASS fungicide 1x+0.035% SILWET surfactant • Combination (1 and 2): 1 MCP 25 g/ha+COMPASS fungicide 1x
as §1, with “application, upper” for “application,”, “plant, five, 2 inch pieces of” for “treatment, two”, “taken, cut into small pieces” for “taken from each of the 10 plants”
as §2, with “maize” for “Arabidopsis”, “the COMPASS fungicide” for “Strobilurin”, “tissues.” for “tissues. Arabidopsis slides, Product #G2519F, Design ID 021169 were obtained from Agilent Technologies.”
A Dow AgroSciences custom generated 60-mer comprehensive transcriptome-wide Zea maize oligonucleotide array was used to carry out microarray hybridizations. This array represents more than 58,000 different maize transcripts (Agilent Technologies Inc., Santa Clara, Calif.) obtained from public data sources. Microarray chips were printed using an Agilent format 2×105K, including 10 copies of 100 probes, 2 copies of 44,196 probes 1 copy of 14,355 probes in addition to 1,325 Agilent spike-in controls. The 60-mer unique and specific oligonucleotides were synthesized in-situ using the Sure-Print technology from the manufacturer.
as §3, with “RNeasy™” for “RNeasy”, “GenoGrinder instrument” for “GenoGrinder”, “NanoDrop™” for “NanoDrop”
as §4, with “QuickAmp™” for “QuickAmp”, “Dow AgroSciences-generated Zea maize AGILENT™” for “Agilent Arabidopsis”, “(P/N G4503A,” for “(Product #G2519F,”, “022232)” for “021169)”, “(Concentration of Cy3)/(Concentration of cRNA)*1000=pmol of Cy3 per μg of cRNA. Samples for hybridization were normalized to 825 ng with a specific activity of >8.0 pmol of Cy3 per μg of cRNA.” left out
Oligo gene expression arrays were hybridized using the Agilent Technologies (Santa Clara, Calif.) Gene Expression Hybridization kit, Wash Buffer kit, Stabilization and Drying Solution following the manufacturer's instructions. Hybridizations were carried out on a fully automated TECAN HS4800 PRO™ (TECAN U.S., Research Triangle Park, N.C.). […]

[3] = Arabidopsis leaves, 2 h after spray, ≧5 fold change
[4] = corn leaves, 2 h after spray, ≧2 fold change

CC1=CC1 [Compound 1-MCP, 1-methylcyclopropene]
overall effect of treatment on gene expression ([1]; Arabidopsis): reduction in stress-related gene expression | genes differentially expressed on the microarray vs untreated [1, 3]: 411 genes | subset of genes changed uniquely in response to this treatment [1, 3]: 202 genes | common genes following treatment with either 1-MCP or COMPASS alone ([1]; Arabidopsis, ≧5 fold change): 165 genes | Regulation^a ([1]; Table 3: Arabidopsis genes, 1-MCP alone, probe A_84_P20410): up | Regulation^a ([1]; Table 3: Arabidopsis genes, 1-MCP alone, probe A_84_P786760): down | Regulation^a ([1]; Table 5: common genes, first column pair (a), probe A_84_P13916): down | Regulation^a ([1]; Table 5: common genes, first column pair (a), probe A_84_P507728): up | Regulation ([2]; probe ZmOL3000012): up | Regulation ([2]; probe ZmOL3007441): down | Regulation ([2]; probe ZmOL3020067): Down | Regulation ([2]; probe ZmOL3050321_2): Up | expression of carbonic anhydrase ([2]; corn): decreased | overall effect of treatment on gene expression ([2]; corn): reduction in stress-related gene expression | genes differentially expressed on the microarray vs untreated [2, 4]: 934 genes | subset of genes changed uniquely in response to this treatment [2, 4]: 362 genes | genes involved in translation whose expression changed that were induced ([2]; corn, genes unique to the treatment): 9 out of 10
